Measurements reported in ChEMBL document CHEMBL4811278, “Discovery of novel modulators for the PPARα (peroxisome proliferator activated receptor α): Potential therapies for nonalcoholic fatty liver disease” (Bioorg Med Chem, 2021).
Activity calls are given as the source filed them. The calls are words filed in the database; no cut-off is given here.

How the values were obtained:
[1] = biological target: T1, Peroxisome proliferator-activated receptor alpha (Homo sapiens, UniProt Q07869); assay: Agonist activity at Gal4-fused human PPARalpha co-expressed with RXRalpha in monkey CV1 cells assessed as PPRE transcriptional activation incubated for 45 hrs by luciferase reporter gene assay; assay type: cell-based, CV-1
T1 sequence (Q07869 whole entry): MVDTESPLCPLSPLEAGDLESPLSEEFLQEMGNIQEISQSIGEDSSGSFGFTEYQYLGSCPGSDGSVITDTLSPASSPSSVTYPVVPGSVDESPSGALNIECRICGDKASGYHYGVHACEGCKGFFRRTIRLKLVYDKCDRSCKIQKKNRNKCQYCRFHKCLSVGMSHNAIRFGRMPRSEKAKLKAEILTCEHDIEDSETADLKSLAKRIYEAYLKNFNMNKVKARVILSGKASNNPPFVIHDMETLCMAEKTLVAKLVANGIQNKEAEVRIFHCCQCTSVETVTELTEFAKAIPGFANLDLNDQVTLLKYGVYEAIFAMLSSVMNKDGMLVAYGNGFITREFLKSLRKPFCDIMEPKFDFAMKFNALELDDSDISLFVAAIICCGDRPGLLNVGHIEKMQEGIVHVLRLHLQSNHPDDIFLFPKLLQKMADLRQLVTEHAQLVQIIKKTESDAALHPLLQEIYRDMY

Mus musculus [2] = assay: Hypolipidemic activity in high fat diet-induced nonalcoholic steatohepatitis C57BL/6J mouse model assessed as reduction in lipid accumulation in liver at 3 mg/kg, po administered once daily for 1 week by Oil Red O staining based assay; assay type: functional, organism-based; conditions: time 1.0 weeks
[3] = biological target: T2, Peroxisome proliferator-activated receptor alpha (Mus musculus) (UniProt P23204); assay: In vivo agonist activity at PPARalpha in high fat diet-induced nonalcoholic steatohepatitis C57BL/6J mouse model assessed as increase in LPL mRNA expression in liver administered at 3 mg/kg, po and measured after 24 hrs by quantitative real time PCR analysis; assay type: functional, organism-based
T2 sequence (whole entry): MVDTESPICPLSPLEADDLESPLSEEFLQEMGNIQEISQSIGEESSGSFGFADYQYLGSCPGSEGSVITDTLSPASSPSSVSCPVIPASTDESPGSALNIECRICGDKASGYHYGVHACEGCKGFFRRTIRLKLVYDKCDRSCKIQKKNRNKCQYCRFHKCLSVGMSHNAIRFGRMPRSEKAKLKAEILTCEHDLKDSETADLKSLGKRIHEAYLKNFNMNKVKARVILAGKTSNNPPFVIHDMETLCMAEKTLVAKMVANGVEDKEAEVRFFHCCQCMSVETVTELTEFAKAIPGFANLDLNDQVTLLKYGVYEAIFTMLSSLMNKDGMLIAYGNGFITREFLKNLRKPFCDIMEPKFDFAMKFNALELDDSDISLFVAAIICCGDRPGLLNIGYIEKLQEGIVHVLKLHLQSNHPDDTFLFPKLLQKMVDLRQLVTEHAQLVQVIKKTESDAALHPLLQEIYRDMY

[4] = biological target: T2, Peroxisome proliferator-activated receptor alpha (Mus musculus); assay: In vivo agonist activity at PPARalpha in high fat diet-induced nonalcoholic steatohepatitis C57BL/6J mouse model assessed as trans-repression of ApoC3 mRNA expression in liver administered at 3 mg/kg, po and measured after 24 hrs by quantitative real time PCR analysis; assay type: functional, organism-based
[5] = biological target: T2, Peroxisome proliferator-activated receptor alpha (Mus musculus); assay: In vivo agonist activity at PPARalpha in high fat diet-induced nonalcoholic steatohepatitis C57BL/6J mouse model assessed as increase in ACOX1 mRNA expression in liver administered at 3 mg/kg, po and measured after 24 hrs by quantitative real time PCR analysis; assay type: functional, organism-based
[6] = biological target: T2, Peroxisome proliferator-activated receptor alpha (Mus musculus); assay: In vivo agonist activity at PPARalpha in high fat diet-induced nonalcoholic steatohepatitis C57BL/6J mouse model assessed as increase in Cyp4a3 mRNA expression in liver administered at 3 mg/kg, po and measured after 24 hrs by quantitative real time PCR analysis; assay type: functional, organism-based
Mus musculus [7] = assay: Hypolipidemic activity in high fat diet-induced nonalcoholic steatohepatitis C57BL/6J mouse model assessed as reduction in plasma triglyceride level at 3 mg/kg, po administered once daily via gavage for 7 days; assay type: functional; conditions: 168 h, time 7 day
[8] = biological target: T2, Peroxisome proliferator-activated receptor alpha (Mus musculus); assay: In vivo agonist activity at PPARalpha in high fat diet-induced nonalcoholic steatohepatitis C57BL/6J mouse model assessed as increase in LPL mRNA expression in liver administered at 3 mg/kg, po administered once daily for 7 days by quantitative real time PCR analysis; assay type: functional, organism-based; conditions: time 7.0 day
[9] = biological target: T2, Peroxisome proliferator-activated receptor alpha (Mus musculus); assay: In vivo agonist activity at PPARalpha in high fat diet-induced nonalcoholic steatohepatitis C57BL/6J mouse model assessed as transrepression of ApoC3 mRNA expression in liver administered at 3 mg/kg, po administered once daily for 7 days by quantitative real time PCR analysis; assay type: functional, organism-based; conditions: time 7.0 day
[10] = biological target: T2, Peroxisome proliferator-activated receptor alpha (Mus musculus); assay: In vivo agonist activity at PPARalpha in high fat diet-induced nonalcoholic steatohepatitis C57BL/6J mouse model assessed as increase in ACOX1 mRNA expression in liver administered at 3 mg/kg, po administered once daily for 7 days by quantitative real time PCR analysis; assay type: functional, organism-based; conditions: time 7.0 day
[11] = biological target: T2, Peroxisome proliferator-activated receptor alpha (Mus musculus); assay: In vivo agonist activity at PPARalpha in high fat diet-induced nonalcoholic steatohepatitis C57BL/6J mouse model assessed as increase in mACADM gene expression in liver at 3 mg/kg, po administered once daily for 7 days by quantitative real time PCR analysis; assay type: functional, organism-based; conditions: time 7.0 day
[12] = Toxicity in high fat diet-induced nonalcoholic steatohepatitis C57BL/6J mouse model assessed as increase in plasma glucose level at 3 mg/kg, po administered once daily for 7 days and measured after 4 days; assay type: organism-based; conditions: in vivo, 96 h, time 4 day
[13] = Toxicity in C57BL/6J mouse assessed as reduction in body weight measured after 24 hrs; conditions: in vivo
[14] = Toxicity in C57BL/6J mouse assessed as reduction in body weight measured after 72 hrs; conditions: in vivo
Mus musculus [15] = assay: Hypolipidemic activity in high fat diet-induced nonalcoholic steatohepatitis PPARalpha knockout C57BL/6J mouse model assessed as reduction in plasma triglyceride levels at 3 mg/kg, po measured after 72 hrs; assay type: functional, organism-based
Mus musculus [16] = assay: Hypolipidemic activity in wild type high fat diet-induced nonalcoholic steatohepatitis C57BL/6J mouse model assessed as reduction in plasma triglyceride levels at 3 mg/kg, po measured after 72 hrs; assay type: functional, organism-based
Mus musculus [17] = assay: Hypolipidemic activity in high fat diet-induced nonalcoholic steatohepatitis C57BL/6J mouse model assessed as reduction in hepatic […] content at 3 mg/kg, po administered once daily via gavage for 7 days; assay type: functional, organism-based; conditions: time 7.0 day

EC50 [1]: 870 pM
Activity [3]: Active
Activity [4]: Active
Activity [5]: Active
Activity [6]: Active
Activity [8]: Active
Activity [9]: Active
Activity [10]: Active
Activity [11]: Active
SMILES: COc1ccc(Cn2c(CCCc3ccc(OC(C)(C)C(=O)O)cc3)nn(Cc3ccc(C)cc3)c2=O)cc1
Activity (Mus musculus [2]): Active
inhibition in vivo at 3 mg/kg (Mus musculus [7]): ≥ 50%
Activity [12]: Non-Toxic
Activity [13]: Non-Toxic
Activity [14]: Non-Toxic
Activity (Mus musculus [15]): inactive
Activity (Mus musculus [16]): Active
Activity (Mus musculus [17]): Active
